Laboratory results published in the supplement of paper PMC10878532, “Sperm Toolbox—A selection of small molecules to study human spermatozoa” (PLOS ONE, 2024).
Structures can show the parent of a compound that is named as a salt.

How the values were obtained:
HeLa [1] = test: HeLa toxicity: nuclei-count effect normalised to DMSO (DMSO = 0); higher = more features changed / larger toxic effect; conditions: incubation time: 24h incubation
human spermatozoa [2] = test: hyperactivated motile sperm, percent change vs DMSO (capacitating); higher = more of the measured sperm population than DMSO, for viability, fewer PI-positive (dead) cells than DMSO; conditions: incubation time: 30min incubation
HeLa [3] = test: Cell Painting percent induction (share of features beyond 2 z-scores vs DMSO); higher = more features changed / larger toxic effect; extreme values may be limits of the assay; conditions: incubation time: 24h incubation
human spermatozoa [4] = test: total motile sperm, percent change vs DMSO (non-capacitating); higher = more of the measured sperm population than DMSO, for viability, fewer PI-positive (dead) cells than DMSO
human spermatozoa [5] = test: progressively motile sperm, percent change vs DMSO (capacitating); higher = more of the measured sperm population than DMSO, for viability, fewer PI-positive (dead) cells than DMSO; conditions: incubation time: 30min incubation
human spermatozoa [6] = test: change in acrosome-reacted (PNA+) sperm vs DMSO, no agonist (capacitating); higher = more of the measured sperm population than DMSO, for viability, fewer PI-positive (dead) cells than DMSO; conditions: incubation time: 3h
human spermatozoa [7] = test: viability fold change, 1 - (PI-positive fraction / DMSO median); higher = more of the measured sperm population than DMSO, for viability, fewer PI-positive (dead) cells than DMSO; conditions: incubation time: 3h, non-capacitating
HepG2 = HepG2 toxicity (resazurin), effect normalised to DMSO (DMSO = 0); higher = more features changed / larger toxic effect; conditions: incubation time: 70h incubation
human spermatozoa [8] = test: progressively motile sperm, percent change vs DMSO (non-capacitating); higher = more of the measured sperm population than DMSO, for viability, fewer PI-positive (dead) cells than DMSO; extreme values may be limits of the assay
human spermatozoa [9] = test: acrosome-reacted (PNA+) sperm after agonist cocktail, percent change vs DMSO (capacitating); higher = more of the measured sperm population than DMSO, for viability, fewer PI-positive (dead) cells than DMSO; conditions: incubation time: 3h, capacitating + agonist cocktail 1h
[10] = incubation time: 10min incubation, 9.99 µM
[11] = incubation time: 10min incubation, 29.9 µM
[12] = incubation time: 3h incubation, 9.99 µM
[13] = incubation time: 3h incubation, 29.9 µM
[14] = incubation time: 6h incubation, 9.99 µM
[15] = incubation time: 6h incubation, 29.9 µM
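Wherever progressively motile sperm, percent change vs DMSO (non-capacitating) is given: pooled live human sperm from at least 3 donors, tracked by automated microscopy in 0.5 s time-lapse movies, compounds at 10 and 30 µM, versus median of 16 DMSO wells per plate.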
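Wherever total motile sperm, percent change vs DMSO (non-capacitating) is given: sperm pooled from at least 3 donors, tracked in 0.5 s time-lapse movies by automated microscopy after 10 min, 3 h or 6 h with compound at 10 or 30 µM.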

O=c1sn(-c2cccc3ccccc23)c(=O)n1Cc1ccccc1 [Tideglusib]
HeLa toxicity: nuclei-count effect normalised (HeLa [1]; 9.99 µM): -2.47% | HeLa toxicity: nuclei-count effect normalised (HeLa [1]; 29.9 µM): 7.35% | hyperactivated motile sperm (human spermatozoa [2]; 9.99 µM): 17.7% | hyperactivated motile sperm (human spermatozoa [2]; 29.9 µM): -11.8% | Cell Painting percent induction (HeLa [3]; 9.99 µM): 0.036% | Cell Painting percent induction (HeLa [3]; 29.9 µM): 0% | total motile sperm (human spermatozoa [4]; [10]): 2.52% | total motile sperm (human spermatozoa [4]; [11]): 3.97% | total motile sperm (human spermatozoa [4]; [12]): -5.07% | total motile sperm (human spermatozoa [4]; [13]): 0.868% | total motile sperm (human spermatozoa [4]; [14]): -6.75% | total motile sperm (human spermatozoa [4]; [15]): -2.88% | progressively motile sperm (human spermatozoa [5]; 9.99 µM): 9.17% | progressively motile sperm (human spermatozoa [5]; 29.9 µM): 6.85% | change in acrosome-reacted (human spermatozoa [6]; 9.99 µM): 0.723% | change in acrosome-reacted (human spermatozoa [6]; 29.9 µM): 0.984% | viability fold change (human spermatozoa [7]; 9.99 µM): -1.71 | viability fold change (human spermatozoa [7]; 29.9 µM): -1.3 | HepG2 toxicity (HepG2; 10 µM): -4.62% | HepG2 toxicity (HepG2; 30 µM): 4.74% | progressively motile sperm (human spermatozoa [8]; [10]): 4.02% | progressively motile sperm (human spermatozoa [8]; [11]): 2.42% | progressively motile sperm (human spermatozoa [8]; [12]): -2.59% | progressively motile sperm (human spermatozoa [8]; [13]): -0.339% | progressively motile sperm (human spermatozoa [8]; [14]): -4% | progressively motile sperm (human spermatozoa [8]; [15]): -0.265% | acrosome-reacted (human spermatozoa [9]; 9.99 µM): 5.65% | acrosome-reacted (human spermatozoa [9]; 29.9 µM): 6.56%

Nc1ccc(-c2ccc3ncc4ccc(=O)n(-c5cccc(C(F)(F)F)c5)c4c3c2)cn1 [Torin 2]
HeLa toxicity: nuclei-count effect normalised (HeLa [1]; 9.99 µM): 83.4% | HeLa toxicity: nuclei-count effect normalised (HeLa [1]; 29.9 µM): 96.5% | hyperactivated motile sperm (human spermatozoa [2]; 9.99 µM): 180% | hyperactivated motile sperm (human spermatozoa [2]; 29.9 µM): 16.9% | Cell Painting percent induction (HeLa [3]; 9.99 µM): 4.68% | Cell Painting percent induction (HeLa [3]; 29.9 µM): 29.7% | total motile sperm (human spermatozoa [4]; [10]): -0.268% | total motile sperm (human spermatozoa [4]; [11]): 1.3% | total motile sperm (human spermatozoa [4]; [12]): -8.49% | total motile sperm (human spermatozoa [4]; [13]): -9.72% | total motile sperm (human spermatozoa [4]; [14]): -12.1% | total motile sperm (human spermatozoa [4]; [15]): -16.1% | progressively motile sperm (human spermatozoa [5]; 9.99 µM): 7.66% | progressively motile sperm (human spermatozoa [5]; 29.9 µM): 15.1% | change in acrosome-reacted (human spermatozoa [6]; 9.99 µM): 1.71% | change in acrosome-reacted (human spermatozoa [6]; 29.9 µM): 1.79% | viability fold change (human spermatozoa [7]; 9.99 µM): -0.979 | viability fold change (human spermatozoa [7]; 29.9 µM): -0.723 | HepG2 toxicity (HepG2; 10 µM): 97.2% | HepG2 toxicity (HepG2; 30 µM): 96% | progressively motile sperm (human spermatozoa [8]; [10]): 38.8% | progressively motile sperm (human spermatozoa [8]; [11]): 34.7% | progressively motile sperm (human spermatozoa [8]; [12]): 76.3% | progressively motile sperm (human spermatozoa [8]; [13]): 50.7% | progressively motile sperm (human spermatozoa [8]; [14]): 89.8% | progressively motile sperm (human spermatozoa [8]; [15]): 47.4% | acrosome-reacted (human spermatozoa [9]; 9.99 µM): 116% | acrosome-reacted (human spermatozoa [9]; 29.9 µM): 129%

COc1cc2c(cc1OC)-c1c/c(=N\c3c(C)cc(C)cc3C)n(C)c(=O)n1CC2 [Trequinsin hydrochloride]
HeLa toxicity: nuclei-count effect normalised (HeLa [1]; 9.99 µM): -1.54% | HeLa toxicity: nuclei-count effect normalised (HeLa [1]; 29.9 µM): 27.5% | hyperactivated motile sperm (human spermatozoa [2]; 9.99 µM): 192% | hyperactivated motile sperm (human spermatozoa [2]; 29.9 µM): 73.7% | Cell Painting percent induction (HeLa [3]; 9.99 µM): 0.036% | Cell Painting percent induction (HeLa [3]; 29.9 µM): 0.36% | total motile sperm (human spermatozoa [4]; [10]): -3.16% | total motile sperm (human spermatozoa [4]; [11]): -4.39% | total motile sperm (human spermatozoa [4]; [12]): -11.3% | total motile sperm (human spermatozoa [4]; [13]): -17.8% | total motile sperm (human spermatozoa [4]; [14]): -12.7% | total motile sperm (human spermatozoa [4]; [15]): -22.8% | progressively motile sperm (human spermatozoa [5]; 9.99 µM): 8.14% | progressively motile sperm (human spermatozoa [5]; 29.9 µM): 16.2% | change in acrosome-reacted (human spermatozoa [6]; 9.99 µM): 1.55% | change in acrosome-reacted (human spermatozoa [6]; 29.9 µM): 1.58% | viability fold change (human spermatozoa [7]; 9.99 µM): -1.81 | viability fold change (human spermatozoa [7]; 29.9 µM): -1.99 | HepG2 toxicity (HepG2; 10 µM): 11.1% | HepG2 toxicity (HepG2; 30 µM): 40.3% | progressively motile sperm (human spermatozoa [8]; [10]): 33.3% | progressively motile sperm (human spermatozoa [8]; [11]): 28.3% | progressively motile sperm (human spermatozoa [8]; [12]): 76.1% | progressively motile sperm (human spermatozoa [8]; [13]): 48.1% | progressively motile sperm (human spermatozoa [8]; [14]): 76.6% | progressively motile sperm (human spermatozoa [8]; [15]): 44% | acrosome-reacted (human spermatozoa [9]; 9.99 µM): 102% | acrosome-reacted (human spermatozoa [9]; 29.9 µM): 120%

O.O.O.OO.OO.[K+].[OH-].[V].c1cnc2c(c1)ccc1cccnc12 [bpV(phen)]
HeLa toxicity: nuclei-count effect normalised (HeLa [1]; 9.99 µM): 34.3% | HeLa toxicity: nuclei-count effect normalised (HeLa [1]; 29.9 µM): 34.7% | hyperactivated motile sperm (human spermatozoa [2]; 9.99 µM): 17.7% | hyperactivated motile sperm (human spermatozoa [2]; 29.9 µM): 12.9% | Cell Painting percent induction (HeLa [3]; 9.99 µM): 0.793% | Cell Painting percent induction (HeLa [3]; 29.9 µM): 2.7% | total motile sperm (human spermatozoa [4]; [10]): 1.25% | total motile sperm (human spermatozoa [4]; [11]): 3.48% | total motile sperm (human spermatozoa [4]; [12]): -3.57% | total motile sperm (human spermatozoa [4]; [13]): -2.96% | total motile sperm (human spermatozoa [4]; [14]): -4.6% | total motile sperm (human spermatozoa [4]; [15]): -7.01% | progressively motile sperm (human spermatozoa [5]; 9.99 µM): 3.97% | progressively motile sperm (human spermatozoa [5]; 29.9 µM): 14.8% | change in acrosome-reacted (human spermatozoa [6]; 9.99 µM): 1.06% | change in acrosome-reacted (human spermatozoa [6]; 29.9 µM): 1.79% | viability fold change (human spermatozoa [7]; 9.99 µM): -0.0835 | viability fold change (human spermatozoa [7]; 29.9 µM): -0.163 | HepG2 toxicity (HepG2; 10 µM): 28.8% | progressively motile sperm (human spermatozoa [8]; [10]): 6.92% | progressively motile sperm (human spermatozoa [8]; [11]): 8.6% | progressively motile sperm (human spermatozoa [8]; [12]): -1.94% | progressively motile sperm (human spermatozoa [8]; [13]): -6.75% | progressively motile sperm (human spermatozoa [8]; [14]): 3.08% | progressively motile sperm (human spermatozoa [8]; [15]): -21.9% | acrosome-reacted (human spermatozoa [9]; 9.99 µM): 16.4% | acrosome-reacted (human spermatozoa [9]; 29.9 µM): 21%

N=C(N)Nc1nc(-c2ccc(Cl)cc2)cs1 [n-[4-(4-Chlorophenyl)-1,3-thiazol-2-yl]guanidine]
HeLa toxicity: nuclei-count effect normalised (HeLa [1]; 9.99 µM): 9.82% | HeLa toxicity: nuclei-count effect normalised (HeLa [1]; 29.9 µM): 14.3% | hyperactivated motile sperm (human spermatozoa [2]; 9.99 µM): 17.5% | hyperactivated motile sperm (human spermatozoa [2]; 29.9 µM): 17.3% | Cell Painting percent induction (HeLa [3]; 9.99 µM): 0% | Cell Painting percent induction (HeLa [3]; 29.9 µM): 0.108% | total motile sperm (human spermatozoa [4]; [10]): 0.678% | total motile sperm (human spermatozoa [4]; [11]): 2.58% | total motile sperm (human spermatozoa [4]; [12]): 1.9% | total motile sperm (human spermatozoa [4]; [13]): -3.38% | total motile sperm (human spermatozoa [4]; [14]): -0.743% | total motile sperm (human spermatozoa [4]; [15]): 0.262% | progressively motile sperm (human spermatozoa [5]; 9.99 µM): 10.1% | progressively motile sperm (human spermatozoa [5]; 29.9 µM): 17% | change in acrosome-reacted (human spermatozoa [6]; 9.99 µM): 1.42% | change in acrosome-reacted (human spermatozoa [6]; 29.9 µM): 1.64% | viability fold change (human spermatozoa [7]; 9.99 µM): -0.638 | viability fold change (human spermatozoa [7]; 29.9 µM): -0.59 | HepG2 toxicity (HepG2; 10 µM): 3.6% | HepG2 toxicity (HepG2; 30 µM): -2.59% | progressively motile sperm (human spermatozoa [8]; [10]): 9.51% | progressively motile sperm (human spermatozoa [8]; [11]): 8.48% | progressively motile sperm (human spermatozoa [8]; [12]): 24% | progressively motile sperm (human spermatozoa [8]; [13]): 14.5% | progressively motile sperm (human spermatozoa [8]; [14]): 19.1% | progressively motile sperm (human spermatozoa [8]; [15]): 31% | acrosome-reacted (human spermatozoa [9]; 9.99 µM): 15.2% | acrosome-reacted (human spermatozoa [9]; 29.9 µM): 21.5%
